Source: patent US20120121691A1, “Method for Increasing the Production of a Specific ACYL-Chain Dihydroceramide(s) for Improving the Effectiveness of Cancer Treatments” (priority 2010, published 2012)

Experiments:
Assay type in all cases: cell-based, human
MOLT-4 ALL cells = test: DIMSCAN cytotoxicity assay, MOLT-4; settings: MOLT-4, sphinganine 1 μM, GT-11 0.5 μM, 48 hours
Excerpt: Cell culture. The pre-T acute lymphoblastic leukemia cell lines MOLT-4 and CCRF-CEM, small cell lung cancer cell line NCI-H146, non-small cell lung cancer cell line NCI-H1792, colon cancer cell lines LoVo and HT-29, and breast cancer cell line MCF-7, were purchased from American Type Culture Collection, Manassas, Va., and grown at 20%/5% and 5%/5%, respectively. COG-LL-317 and COG-LL-332 pre-T acute lymphoblastic leukemia cell lines were obtained from the TTUHSC Cancer Center Cell Repository and grown at 5%/5%. Cell line identities were verified by short tandem repeat analysis and mycoplasma testing was performed. Cell lines were maintained in RPMI-1640 medium supplemented with 10% fetal bovine serum (FBS, Invitrogen) in humidified, 37° C. incubators. For all experiments, ALL cell lines were seeded at […] in RPMI-1640 medium supplemented with 15% fetal bovine serum. Solid tumor cell lines were plated at 5×cells/mL in RPMI-1640 medium supplemented with 10% fetal bovine serum.
Cytotoxicity Assay. Cytoxicity is determined using the DIMSCAN assay system (R. Proffitt et al., Cytometry 24, 204-213 (1996); T. Frgala et al., Proc. AACR, 36, 303 (1995). The system employs digital imaging microscopy to quantify viable cells, which selectively accumulate fluorescein diacetate to become brightly fluorescent. The system is capable of measuring cytotoxicity over a 4-5 log dynamic range by quenching the residual fluorescence of dead and dying cells with eosin Y and quantifying the total fluorescence of viable cells using digital thresholding. Measured fluorescence is directly proportionate to the number of viable cells. A comparison of the total fluorescence of a drug-treated cell population to the fluorescence of a similar number of untreated cells yields a survival fraction. […]
The addition of C22:0-fatty acid, but not C18:0 or C22:1 fatty acids, increased cytotoxicity (FIGS. 7A-7F). […] Cytotoxicity was measured using DIMSCAN, and data was normalized to control and plotted as survival fraction (y-axis). […]

[1] = system: intracellular sphingolipids, MOLT-4; test: LC/MS/MS analysis of intracellular sphingolipids, MOLT-4; settings: for increase in corresponding dihydroceramide over sphinganine+GT-11 alone: MOLT-4, fatty acid with sphinganine+GT-11, six hours, P<0.05
Description: (§1) LC/MS/MS analysis of intracellular sphingolipids. Sphingolipids were separated using an Agilent 1200 HPLC (LC) and determined by ESI/MS/MS performed on a AB SCIEX 4000 QTRAP Hybrid Triple Quadrupole/Linear Ion Trap mass spectrometer (MS), operating in a multiple reaction monitoring positive ionization mode as described previously with moderate modifications (25). Briefly, 50 μL of a solution (1 μM) of internal sphingolipid standards (including -sphingosine, -sphinganine, -sphingosine-1-phosphate, and -ceramide) was added to each cell pellet sample. Lipids of each sample were extracted twice with 2 mL of the ethyl acetate/isopropyl alcohol/water (60:28:12; v:v) solvent system. Supernatants were transferred to glass tubes (Kimble Chase) and evaporated under air (10 PSI) at 40° C. After reconstitution in methanol (4 mL), 1 ml of each sample was separated for the determination of lipid phosphate. Remaining sample (3 mL) was dried and used for sphingolipid quantification. For ESI/MS/MS, the dried lipid sample was dissolved in mobile phase A. Samples were injected (10 μL) and separated on a Spectra C8SR, 150×3.0 mm, 3-μm particle size column using gradient-elution (mobile phase A/B, prepared as previously described).
Data acquisition, peak integration and analyte quantitation were performed using ABI/SCIEX Analyst 1.4.2 Software. Sphingolipid data were normalized to lipid phosphate as previously described (26). Briefly, samples were dried under air (10 PSI) and lipids were extracted using the method of Bligh and Dyer (27). Of importance for phosphate assay, only Kimble Chase disposable borosilicate tubes were used for minimal sample contamination. […] Samples were then incubated with ammonium molybdate and ascorbic acid as previously described, and absorbance ([…]) was read using a SpectraMax.
Cells were treated for 48 hours with Sa (0-4 μM)+/−GT-11 (0.5 μM) with or without C18:0-, C22:0- or C22:1-fatty acids. Cytotoxicity was measured using DIMSCAN, and data was normalized to control and plotted as survival fraction (y-axis). […]

[2] = system: intracellular sphingolipids, COG-LL-332; test: LC/MS/MS analysis of intracellular sphingolipids, COG-LL-332; settings: for increase in corresponding dihydroceramide over sphinganine+GT-11 alone: COG-LL-332, fatty acid with sphinganine+GT-11, six hours, P<0.05
Description: as §1
Data acquisition, peak integration and analyte quantitation were performed using ABI/SCIEX Analyst 1.4.2 Software. Sphingolipid data were normalized to lipid phosphate as previously described (26). Briefly, samples were dried under air (10 PSI) and lipids were extracted using the method of Bligh and Dyer (27). Of importance for phosphate assay, only Kimble Chase disposable borosilicate tubes were used for minimal sample contamination. Organic phase was transferred to glass tubes and a known volume was separated to a new tube and dried at 80° C. Phosphate standards and dried samples were then heated with ashing buffer (water:10 N:70% [40:9:1]) at 160° C. overnight. Samples were then incubated with ammonium molybdate and ascorbic acid as previously described, and absorbance ([…]) was read using a SpectraMax.
Cells were treated for 48 hours with Sa (0-4 μM)+/−GT-11 (0.5 μM) with or without C18:0-, C22:0- or C22:1-fatty acids. Cytotoxicity was measured using DIMSCAN, and data was normalized to control and plotted as survival fraction (y-axis). Gray and white symbols represent long and very long chain fatty acids, respectively. Gray lines encompass data used for sphingolipid correlation analysis with cytotoxicity. Datum point, mean; error bar, SEM. […]
Cytotoxicity was measured using DIMSCAN, and data was normalized to control and plotted as survival fraction (y-axis).

For CCCCCCCCCCCCCCCCCCCCCC(=O)O [C22:0-fatty acid], the “effect of fatty acid co-treatment on cytotoxicity of sphinganine with GT-11” value (MOLT-4 ALL cells) was “increased”, the “increase of C22:0-dihydroceramide over sphinganine+GT-11 alone” value ([1]; MOLT-4, fatty acid with sphinganine 1 μM plus GT-11 0.5 μM, six hours, P<0.01) was 29 fold and the “increase in corresponding dihydroceramide over sphinganine+GT-11 alone” value [1] was “significant increases”. The “increase of C22:0-dihydroceramide compared to 4-HPR alone” value ([2]; COG-LL-332, fatty acid with 4-HPR 1.1 μM, six hours, P<0.001) was 8 fold, the “increase of C22:0-dihydroceramide over sphinganine+GT-11 alone” value ([2]; COG-LL-332, fatty acid with sphinganine 1 μM plus GT-11 0.5 μM, six hours, P<0.001) was 57 fold and the “increase in corresponding dihydroceramide over sphinganine+GT-11 alone” value [2] was “significant increases”.
In the case of CCCCCCCC/C=C\CCCCCCCCCCCC(=O)O [C22:1-fatty acid], the “effect of fatty acid co-treatment on cytotoxicity of sphinganine with GT-11” value (MOLT-4 ALL cells) is reported as “not”, the “increase in corresponding dihydroceramide over sphinganine+GT-11 alone” value [1] is reported as “significant increases” and the “increase in corresponding dihydroceramide over sphinganine+GT-11 alone” value [2] is reported as “significant increases”.
